No end group written: not given here.
How the values were obtained:
[1] = molecular target: T1, S. cerevisiae adenylyl cyclase (Ras Dependent, strain MY1186) (Saccharomyces cerevisiae, UniProt P08678); assay: Yeast adenylyl cyclase assay, Ras-dependent, membranes from strain MY1186 (expresses mammalian Ras); assay type: biochemical; conditions: part A
T1 construct: S. cerevisiae strain MY1186 lacks endogenous yeast Ras, expresses viral Ha-Ras, and has a Ras-dependent adenylyl cyclase; endogenous in cells; host or cells: membranes of recombinant S. cerevisiae strain MY1186 (cyclase endogenous; Ha-Ras heterologously expressed)
From the text: (§1) Another Ras-dependent enzymatic assay was used to extend the observed ability of the peptides of the present invention to inhibit Ras function. This system, yeast adenylyl cyclase assay, measures the Ras-dependent conversion of ATP into cyclic AMP (cAMP). […] Furthermore, in S. cerevisiae, regulation of cAMP metabolism appears to be a major function of Ras. This assay system was used to extend the observed Ras inhibitory activity of the peptides of the present invention, to a Ras function which is GAP-unrelated. S. cerevisiae strain FlD lacks functional Ras proteins, however FlD cells have functional adenylyl cyclase in their cell membrane. […] Similarly, a recombinant S. cerevisiae strain MY1186, lacks yeast Ras proteins but expresses mammalian Ras protein which functions with adenylyl cyclase to regulate cAMP metabolisim in the yeast cells. […] In contrast, S. cerevisiae strain JC377-10B contains a mutant form of adenylyl cyclase which constitutively converts ATP into cAMP with or without Ras.
(§2) Ras peptides were tested at the indicated concentrations for inhibition of S. cerevisiae adenylyl cyclase activity. […] Ras-independent activity was assayed with membranes from strain JC377-10B (ras-minus, constitutively active adenylyl cyclase).
(§3) Yeast strain FlD, MY1186 and JC377-10B, were grown in YEHD medium at 30°C. Membrane fractions were prepared from cultures grown to an A₆₆₀ of 0.5 to 1.0 by glusulase digestion [Casperson, G.F. et al., (1983), J. Biol. Chem., 258, pp. 7911-7914], Dounce homogenization of the spheroplasts in buffer containing 50 mM sodium MES [2(N-morpholino) ethanesulfonic acid] […] Adenylyl cyclase assays (100-µL reaction volume) measured the conversion of [α-³²P]ATP to [³²P]cAMP at 30°C, using 50 µg to 100 µg of membrane protein in assays using membranes from yeast strains MY1186 and JC377-10B.. […] Since these membranes contain adenylyl cyclase, but are lacking Ras protein, stimulation of adenylyl cyclase activity may be measured following reconstitution with purified Ras complexed with GTP. […]

[2] = assay type: physicochemical
Experimental: Ras peptides were dissolved in either 100% dimethyl formamide (DMF, American Burdick and Jackson) or 100% dimethyl sulfoxide (DMSO, Fluka UV-spectroscopy grade) at a calculated peptide concentration of 1-4 mM. Following 1 minute in a Sonicor SC-200 bath sonicator at room temperature, the peptide solutions were vortexed, and then centrifuged for 5 minutes at room temperature in an Eppendorf microfuge to remove any undissolved material. 20 µL of the cleared peptide solutions were then added to 80 µL of Buffer D in a dilution series covering a range of peptide concentrations from 0.02 µM up to the maximum solubility limit for each peptide. In each dilution, the solvent concentration was maintained at 20%. These peptides solutions were then centrifuged for 5 minutes at room temperature at 10,000 x g, and the cleared supernatants were divided into 2 parts. One part of each cleared peptide dilution was used in a GAP competition assay: 40 µL was added to a 5 µL solution containing 0.1 mg/mL BSA plus 240 fmol Ha-ras p21-[γ-³²P]GTP. Reactions were initiated upon addition of 5 µL of diluted GAP (10 fmol), and analyzed as described above.
The other portion of the cleared peptide solution was measured spectrophotometrically to determine solubility and concentration of the peptides. Extinction coefficients were determined by measuring the absorbance at 277 nm of 2 peptides whose exact concentrations were quantitated by amino acid analysis. The extinction coefficients for peptide Ras 17-37 dissolved in buffer D/20% DMF or peptide Ras 91-103 (SEQ ID NO:14)dissolved in water/20% DMSO, were 2580 cm⁻¹M⁻¹ and 2230 cm⁻¹ M⁻¹, respectively. These values were used to determine the exact concentration for each peptide used at each point in the competition assay. In addition, peptide solubility was confirmed by comparing the light scattering at 600 nm for each peptide solution measured before and after centrifugation. Only concentrations reflecting 100% solubility were used in the dose response curves, and the maximum concentration used for each peptide competitor indicates the limit of solubility for that peptide.

[3] = molecular target: T2, S. cerevisiae adenylyl cyclase (Ras Dependent, strain FlD reconstituted with purified Ras) (Saccharomyces cerevisiae, UniProt P08678); assay: Yeast adenylyl cyclase assay, reconstitution of FlD membranes with purified Ras protein; assay type: biochemical; conditions: part B, FlD membranes with 5 µM purified Ras protein, peptide 10 µM
T2 construct: Since these membranes contain adenylyl cyclase, but are lacking Ras protein; endogenous in cells; host or cells: membranes of S. cerevisiae strain FlD
From the text: as §1, §2, §3

T1 sequence (P08678 whole entry): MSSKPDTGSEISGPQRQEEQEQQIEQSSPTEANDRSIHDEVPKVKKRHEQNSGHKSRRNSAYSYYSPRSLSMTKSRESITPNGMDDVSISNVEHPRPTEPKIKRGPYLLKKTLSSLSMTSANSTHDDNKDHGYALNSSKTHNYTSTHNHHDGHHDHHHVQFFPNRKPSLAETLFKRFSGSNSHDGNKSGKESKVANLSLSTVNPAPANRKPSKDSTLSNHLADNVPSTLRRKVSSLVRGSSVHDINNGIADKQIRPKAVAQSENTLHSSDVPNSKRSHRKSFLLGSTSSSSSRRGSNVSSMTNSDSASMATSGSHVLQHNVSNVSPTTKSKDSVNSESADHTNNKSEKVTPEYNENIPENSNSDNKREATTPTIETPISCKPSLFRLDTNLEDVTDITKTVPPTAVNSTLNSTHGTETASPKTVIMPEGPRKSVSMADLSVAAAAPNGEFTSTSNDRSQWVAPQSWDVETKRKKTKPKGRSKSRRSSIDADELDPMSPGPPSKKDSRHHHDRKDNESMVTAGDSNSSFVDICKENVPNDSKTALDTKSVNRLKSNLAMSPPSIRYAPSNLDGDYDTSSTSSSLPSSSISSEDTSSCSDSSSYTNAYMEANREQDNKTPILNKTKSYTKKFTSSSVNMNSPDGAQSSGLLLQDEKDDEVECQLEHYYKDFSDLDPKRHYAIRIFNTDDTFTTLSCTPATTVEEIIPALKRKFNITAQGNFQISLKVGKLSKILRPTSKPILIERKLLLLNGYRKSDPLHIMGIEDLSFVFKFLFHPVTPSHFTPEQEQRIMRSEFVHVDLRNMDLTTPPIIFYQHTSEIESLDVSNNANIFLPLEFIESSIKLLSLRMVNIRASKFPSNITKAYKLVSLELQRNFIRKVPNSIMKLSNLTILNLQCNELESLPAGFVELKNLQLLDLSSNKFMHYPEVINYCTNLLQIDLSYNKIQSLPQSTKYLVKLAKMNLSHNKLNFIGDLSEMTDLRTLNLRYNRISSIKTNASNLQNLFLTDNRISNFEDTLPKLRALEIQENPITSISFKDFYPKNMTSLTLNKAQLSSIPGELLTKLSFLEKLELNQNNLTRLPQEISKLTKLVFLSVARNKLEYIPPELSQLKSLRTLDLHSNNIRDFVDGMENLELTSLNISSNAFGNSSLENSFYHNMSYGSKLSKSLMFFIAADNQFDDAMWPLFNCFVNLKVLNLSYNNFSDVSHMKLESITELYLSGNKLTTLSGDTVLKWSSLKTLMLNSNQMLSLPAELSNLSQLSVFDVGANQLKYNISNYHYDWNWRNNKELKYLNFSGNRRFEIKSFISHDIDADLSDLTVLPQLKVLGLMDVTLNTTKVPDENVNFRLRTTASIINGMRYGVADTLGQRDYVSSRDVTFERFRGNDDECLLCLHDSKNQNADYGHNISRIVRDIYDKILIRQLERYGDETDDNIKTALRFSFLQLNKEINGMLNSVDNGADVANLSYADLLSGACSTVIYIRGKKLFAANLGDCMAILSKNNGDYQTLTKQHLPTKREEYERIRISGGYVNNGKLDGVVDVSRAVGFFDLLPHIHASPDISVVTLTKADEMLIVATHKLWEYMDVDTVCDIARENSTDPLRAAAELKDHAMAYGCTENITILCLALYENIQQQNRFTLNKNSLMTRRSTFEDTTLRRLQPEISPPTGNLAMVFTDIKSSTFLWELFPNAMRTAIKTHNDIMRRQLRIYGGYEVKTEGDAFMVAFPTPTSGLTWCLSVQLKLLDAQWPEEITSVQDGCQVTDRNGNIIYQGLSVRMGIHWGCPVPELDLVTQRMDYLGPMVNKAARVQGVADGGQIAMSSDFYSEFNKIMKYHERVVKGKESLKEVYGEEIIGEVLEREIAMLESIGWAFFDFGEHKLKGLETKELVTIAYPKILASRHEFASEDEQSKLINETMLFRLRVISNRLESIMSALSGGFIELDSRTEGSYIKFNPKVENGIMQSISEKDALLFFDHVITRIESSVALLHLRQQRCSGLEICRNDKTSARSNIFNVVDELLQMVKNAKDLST
T2 sequence (P08678 whole entry): as above

Molecule	%Inhibition of Adenylyl Cyclase Activity Ras Dependent ([1]; peptide 19 µM)	Maximum Solubility [2]	%Inhibition of Adenylyl Cyclase Activity Ras Dependent [3]	%Inhibition of Adenylyl Cyclase Activity Ras Dependent ([1]; peptide 100 µM)	%Inhibition of Adenylyl Cyclase Activity Ras Dependent ([1]; peptide 40 µM)
CC[C@H](C)[C@H](NC(=O)[C@H](CC(C)C)NC(=O)[C@H](CCC(N)=O)NC(=O)[C@@H](NC(=O)[C@@H](NC(=O)[C@H](CC(C)C)NC(=O)[C@H](C)NC(=O)[C@@H](N)CO)[C@@H](C)O)[C@@H](C)CC)C(=O)N[C@@H](CCC(N)=O)C(=O)N[C@@H](CC(N)=O)C(=O)N[C@@H](Cc1c[nH]cn1)C(=O)N[C@@H](Cc1ccccc1)C(=O)N[C@H](C(=O)N[C@@H](CC(=O)O)C(=O)N[C@@H](CCC(=O)O)C(=O)N[C@@H](Cc1ccc(O)cc1)C(=O)O)C(C)C [Ras 17-32]	34%	19 µM	26 ± 2%		
LIQNHFVDEYDPTIE [Ras 23-37]		250 µM	5 ± 1%	2%	
SALTIQLIQNHFVDEYDPTIE [Ras 17-37]		40 µM			58 ± 2%

— patent EP0496162A2, “Peptide inhibitors of RAS-GAP interaction” (MERCK & CO. INC., priority 1990, dated 1992)
